The nature of one data set: head-to-tail macrolactamisation of free linear pentapeptide 10 (H-NMeAA...Leu-OH), PyBOP (2 equiv), DMAP (3 equiv); Route E: peptide solution (4.3 mM in MeCN) added dropwise over 10 h to PyBOP/DMAP in MeCN, further 3 h stirring. Particulars: the molecule shown is the open-chain precursor; 15-membered ring; CH3CN; 1.0 mM; 20.0 °C; 13.0 h.
For `CN[C@H](CC(C)C)C(=O)N[C@H](CC(C)C)C(=O)N[C@H](CC(C)C)C(=O)N(C)[C@H](CC(C)C)C(=O)N[C@H](CC(C)C)C(=O)O` [H-D-N(Me)Leu-D-Leu-D-Leu-D-N(Me)Leu-D-Leu-OH], the ring closure, isolated yield came to 48%.
The same measure, in the same setting: for `CN[C@H](CC(C)C)C(=O)N[C@H](CC(C)C)C(=O)N[C@@H](CC(C)C)C(=O)N(C)[C@H](CC(C)C)C(=O)N[C@H](CC(C)C)C(=O)O` [H-D-N(Me)Leu-D-Leu-Leu-D-N(Me)Leu-D-Leu-OH] the value was 50%; for `CN[C@H](CC(C)C)C(=O)N[C@@H](CC(C)C)C(=O)N[C@H](CC(C)C)C(=O)N(C)[C@H](CC(C)C)C(=O)N[C@@H](CC(C)C)C(=O)O` [H-D-N(Me)Leu-Leu-D-Leu-D-N(Me)Leu-Leu-OH], 45%; for `CN[C@H](CC(C)C)C(=O)N[C@@H](CC(C)C)C(=O)N[C@@H](CC(C)C)C(=O)N(C)[C@H](CC(C)C)C(=O)N[C@@H](CC(C)C)C(=O)O` [H-D-N(Me)Leu-Leu-Leu-D-N(Me)Leu-Leu-OH], 48%.
For the molecule `CN[C@@H](CC(C)C)C(=O)N[C@H](CC(C)C)C(=O)N[C@H](CC(C)C)C(=O)N(C)[C@@H](CC(C)C)C(=O)N[C@H](CC(C)C)C(=O)O` [H-N(Me)Leu-D-Leu-D-Leu-N(Me)Leu-D-Leu-OH], the ring closure, isolated yield came to 54%.
Same read-out and setting: the value for `CN[C@@H](CC(C)C)C(=O)N[C@H](CC(C)C)C(=O)N[C@@H](CC(C)C)C(=O)N(C)[C@@H](CC(C)C)C(=O)N[C@H](CC(C)C)C(=O)O` [H-N(Me)Leu-D-Leu-Leu-N(Me)Leu-D-Leu-OH] was 45%; that for `CN[C@@H](CC(C)C)C(=O)N[C@@H](CC(C)C)C(=O)N[C@H](C)C(=O)N(C)[C@@H](CC(C)C)C(=O)N[C@@H](CC(C)C)C(=O)O` [H-N(Me)Leu-Leu-D-Ala-N(Me)Leu-Leu-OH] was 49%; that for `CN[C@@H](CC(C)C)C(=O)N[C@@H](CC(C)C)C(=O)N[C@H](CC(=O)OC)C(=O)N(C)[C@@H](CC(C)C)C(=O)N[C@@H](CC(C)C)C(=O)O` [H-N(Me)Leu-Leu-D-Asp(OMe)-N(Me)Leu-Leu-OH] was 52%.
On the same count and under the same terms, the value for `CN[C@@H](CC(C)C)C(=O)N[C@@H](CC(C)C)C(=O)N[C@@H](C(=O)N(C)[C@@H](CC(C)C)C(=O)N[C@@H](CC(C)C)C(=O)O)C1CCCCC1` [H-N(Me)Leu-Leu-D-Chg-N(Me)Leu-Leu-OH] was 51%; that for `CN[C@@H](CC(C)C)C(=O)N[C@@H](CC(C)C)C(=O)N[C@H](CC(C)C)C(=O)N(C)[C@@H](CC(C)C)C(=O)N[C@@H](CC(C)C)C(=O)O` [H-N(Me)Leu-Leu-D-Leu-N(Me)Leu-Leu-OH] was 45%.
Consider `CN[C@@H](CC(C)C)C(=O)N[C@@H](CC(C)C)C(=O)N[C@H](CCSC)C(=O)N(C)[C@@H](CC(C)C)C(=O)N[C@@H](CC(C)C)C(=O)O` [H-N(Me)Leu-Leu-D-Met-N(Me)Leu-Leu-OH], for which the ring closure, isolated yield was 52%.
With `CN[C@@H](CC(C)C)C(=O)N[C@@H](CC(C)C)C(=O)N[C@H](Cc1ccccc1C)C(=O)N(C)[C@@H](CC(C)C)C(=O)N[C@@H](CC(C)C)C(=O)O` [H-N(Me)Leu-Leu-D-Phe(2-Me)-N(Me)Leu-Leu-OH], the ring closure, isolated yield came out at 53%.
As to `CN[C@@H](CC(C)C)C(=O)N[C@@H](CC(C)C)C(=O)N[C@H](Cc1cccc(F)c1)C(=O)N(C)[C@@H](CC(C)C)C(=O)N[C@@H](CC(C)C)C(=O)O` [H-N(Me)Leu-Leu-D-Phe(3-F)-N(Me)Leu-Leu-OH], the ring closure, isolated yield came to 53%.
Consider `CN[C@@H](CC(C)C)C(=O)N[C@@H](CC(C)C)C(=O)N[C@H](Cc1cccc(C)c1)C(=O)N(C)[C@@H](CC(C)C)C(=O)N[C@@H](CC(C)C)C(=O)O` [H-N(Me)Leu-Leu-D-Phe(3-Me)-N(Me)Leu-Leu-OH], for which the ring closure, isolated yield was determined as 53%.
Same read-out and setting: the value for `CN[C@@H](CC(C)C)C(=O)N[C@@H](CC(C)C)C(=O)N[C@H](Cc1ccc(Br)cc1)C(=O)N(C)[C@@H](CC(C)C)C(=O)N[C@@H](CC(C)C)C(=O)O` [H-N(Me)Leu-Leu-D-Phe(4-Br)-N(Me)Leu-Leu-OH] was 55%.
Still for that read-out and setting: for `CN[C@@H](CC(C)C)C(=O)N[C@@H](CC(C)C)C(=O)N[C@H](Cc1ccc(Cl)cc1)C(=O)N(C)[C@@H](CC(C)C)C(=O)N[C@@H](CC(C)C)C(=O)O` [H-N(Me)Leu-Leu-D-Phe(4-Cl)-N(Me)Leu-Leu-OH] the value was 55%; for `CN[C@@H](CC(C)C)C(=O)N[C@@H](CC(C)C)C(=O)N[C@H](Cc1ccc(C)cc1)C(=O)N(C)[C@@H](CC(C)C)C(=O)N[C@@H](CC(C)C)C(=O)O` [H-N(Me)Leu-Leu-D-Phe(4-Me)-N(Me)Leu-Leu-OH], 50%; for `CN[C@@H](CC(C)C)C(=O)N[C@@H](CC(C)C)C(=O)N[C@H](Cc1ccccc1)C(=O)N(C)[C@@H](CC(C)C)C(=O)N[C@@H](CC(C)C)C(=O)O` [H-N(Me)Leu-Leu-D-Phe-N(Me)Leu-Leu-OH], 51%.
Same read-out and setting: the value for `CN[C@@H](CC(C)C)C(=O)N[C@@H](CC(C)C)C(=O)N[C@@H](C(=O)N(C)[C@@H](CC(C)C)C(=O)N[C@@H](CC(C)C)C(=O)O)c1ccccc1` [H-N(Me)Leu-Leu-D-Phg-N(Me)Leu-Leu-OH] was 51%; that for `CN[C@@H](CC(C)C)C(=O)N[C@@H](CC(C)C)C(=O)N1CCC[C@@H]1C(=O)N(C)[C@@H](CC(C)C)C(=O)N[C@@H](CC(C)C)C(=O)O` [H-N(Me)Leu-Leu-D-Pro-N(Me)Leu-Leu-OH] was 51%; that for `CN[C@@H](CC(C)C)C(=O)N[C@@H](CC(C)C)C(=O)N[C@H](COC)C(=O)N(C)[C@@H](CC(C)C)C(=O)N[C@@H](CC(C)C)C(=O)O` [H-N(Me)Leu-Leu-D-Ser(OMe)-N(Me)Leu-Leu-OH] was 52%.
In the case of `CN[C@@H](CC(C)C)C(=O)N[C@@H](CC(C)C)C(=O)N[C@H](Cc1ccc(OC)cc1)C(=O)N(C)[C@@H](CC(C)C)C(=O)N[C@@H](CC(C)C)C(=O)O` [H-N(Me)Leu-Leu-D-Tyr(OMe)-N(Me)Leu-Leu-OH], the ring closure, isolated yield turned out to be 52%.
On the same count and under the same terms, for `CN[C@@H](CC(C)C)C(=O)N[C@@H](CC(C)C)C(=O)N[C@@H](C(=O)N(C)[C@@H](CC(C)C)C(=O)N[C@@H](CC(C)C)C(=O)O)C(C)C` [H-N(Me)Leu-Leu-D-Val-N(Me)Leu-Leu-OH] the value was 50%.
On the same count and under the same terms, for `CN[C@@H](CC(C)C)C(=O)N[C@@H](CC(C)C)C(=O)NCC(=O)N(C)[C@@H](CC(C)C)C(=O)N[C@@H](CC(C)C)C(=O)O` [H-N(Me)Leu-Leu-Gly-N(Me)Leu-Leu-OH] the value was 51%.

Assay in the next data set: not given
Particulars: amide bond; 15-membered ring; PyBOP/DMAP; MeCN; 4.3 mM.
“Cyclo(Me-D-Leu-D-Leu-D-Leu-Me-D-Leu-D-Leu)” yielded a ring closure, isolated yield of 48%.
With “Cyclo(Me-D-Leu-D-Leu-L-Leu-Me-D-Leu-D-Leu)”, the ring closure, isolated yield was found to be 50%.
Still for that read-out and setting: for “Cyclo(Me-D-Leu-L-Leu-D-Leu-Me-D-Leu-L-Leu)” the value was 45%.
On the same count and under the same terms, the value for “Cyclo(Me-D-Leu-L-Leu-L-Leu-Me-D-Leu-L-Leu)” was 48%.
For “Cyclo(Me-L-Leu-D-Leu-D-Leu-Me-L-Leu-D-Leu)”, the ring closure, isolated yield amounted to 54%.
The same measure, in the same setting: for “Cyclo(Me-L-Leu-D-Leu-L-Leu-Me-L-Leu-D-Leu)” the value was 45%.
Same read-out and setting: the value for “Cyclo(Me-L-Leu-L-Leu-2-Me-D-Phe-Me-L-Leu-L-Leu)” was 53%; that for “Cyclo(Me-L-Leu-L-Leu-3-Flu-D-Phe-Me-L-Leu-L-Leu)” was 53%.
